This is an account of results in US20080008745A1, “Transdermal delivery of naltrexone hydrochloride, naltrexol hydrochloride, and bis(hydroxy-methyl)propionyl-3-0 ester naltrexone using microneedles” (UNIVERSITY OF KENTUCKY RESEARCH FOUNDATION, priority 2006, published 2008).

≈ marks a conversion by molar mass, not a printed value.

Data set [1] can be described thus: In vitro skin diffusion study, flow-through diffusion cell, guinea pig skin. The protocol: Hairless guinea pig skin was harvested from euthanitized animals. Animal studies were approved by the University of Kentucky IACUC. Human skin harvested during abdominoplasty was used for the diffusion studies. Human tissue use was approved by the University of Kentucky Institutional Review Board. Skin sections were obtained by removing the subcutaneous fatty tissue by scalpel dissection and stored at −20° C. A PermeGear flow-through (In-Line, Riegelsville, Pa.) diffusion cell system was used for the skin permeation studies. Skin used for microneedle treatment was placed on a wafer of polydimethylsiloxane polymer, which mimicked the underlying resistance of tissue. The skin was poked 20 times with an array containing 5 MN before mounting the skin in the diffusion cell. Untreated skin samples were simply placed in the diffusion cells. Diffusion cells were kept at 32° C. with a circulating water bath. Data was collected by using skin from a single donor with three cells for untreated formulations and three to four cells for the MN treated formulations. The receiver solution was HEPES-buffered Hanks' balanced salts with gentamicin at pH 7.4, and the flow rate was adjusted to 1.1 mL/h. Each cell was charged with 0.25 mL of the respective drug solution. […] All samples were stored at 4° C. until processed by solid phase extraction.
The cumulative quantity of drug collected in the receiver compartment was plotted as a function of time. The flux value for a given experiment was obtained from the slope of the steady state portion of the cumulative amount of drug permeated, plotted over time. Apparent permeability coefficient values were calculated from Fick's First Law of diffusion: [formula]
Sink conditions were maintained in the receiver solution for the duration of the experiment, so ΔC was approximated by the drug concentration in the donor compartment.
The HPLC analysis was performed as described by Vaddi et al., Pharm. Res. 22 (2005) 758-765. The HPLC system consisted of a Waters 717plus autosampler, a Waters 1525 Binary HPLC pump, and a Waters 2487 Dual λ Absorbance detector with Waters Breeze software. A Brownlee C-18 reversed-phase Spheri-5 μm column (220×4.6 mm) with a C-18 reversed phase 7 μm guard column (15×3.2 mm) was used with the UV detector set at a wavelength of 215 nm. […] The mobile phase for Naltrexol consisted of 90:10 ACN:0.1% TFA adjusted to pH 3.0 with TEA. Samples were run for 10 min at 1 mL/min as described by Paudel et al., J. Pharm. Sci. 94 (2005) 1965-1975). One hundred microliters of sample was injected onto the column for both Naltrexone and Naltrexol. Samples were analyzed within the linear range of the standard curves.
The drugs were extracted from the buffer samples by solid phase extraction (30mg 1 cc Oasis® HLB, Waters Corp., Milford, Mass.) as described by Vaddi et al., Pharm. Res. 22 (2005) 758-765.
Before extracting the aqueous drug samples (5 mL), the cartridge was conditioned with 1 mL of methanol and 1 mL of nanopure water. After sample loading, the cartridge was washed with 1 mL of 5% methanol and the drug was eluted with ACN and analyzed by HPLC. A similar extraction method was employed for Naltrexol, except 2 mL of methanol was used in conditioning and 1 mL of nanopure water was also used to further wash the samples after being loaded onto the cartridge. The Naltrexol was eluted with 2 mL of isopropanol and finally with 1 mL ACN. Naltrexol samples were evaporated under nitrogen in a water bath maintained at 37° C. The samples were then reconstituted with 1 mL of ACN for HPLC analysis. Highly concentrated samples of Naltrexone and Naltrexol were further diluted 10 times in ACN.
The data obtained from the diffusion experiments were plotted as the cumulative amount of drug collected in the receiver compartment as a function of time.

For data set [2] the following is noted: human skin, passive diffusion without MN (Paudel et al.); cited from earlier work.
Data set [3] can be described thus: Solubility in 3:1 PG:Hanks' buffer. Format: physicochemical. The protocol: An excess of Naltrexone HCl (˜350 mg) was added to 1 mL of 3:1 PG:Hanks' buffer. The saturated solution was then vortexed for 1 min, sonicated for 15 min, and placed in an incubator at 32° C. for 24 h while shaking on a belly shaker. Just before filtering, a glass syringe and 0.45 μm filter were heated in an incubator to 32° C. The solution was filtered and diluted with ACN for high pressure liquid chromatography (HPLC) analysis.

The nature of data set [4]: In vitro skin diffusion study, flow-through diffusion cell, human skin. Format: in vitro ADME.
Where [5] appears, read: No MN GP skin, listed as Naltrexone base.

Take `O=C1CC[C@@]2(O)[C@H]3Cc4ccc(O)c5c4[C@@]2(CCN3CC2CC2)[C@H]1O5` [NTX Base, Naltrexone]: the Lag time in data set [1] (MN GP skin) came to 18.91 ± 4.49 h; in data set [1] (MN GP skin, listed as Naltrexone base) it was 18.91 ± 4.49 h; in data set [1] (No MN GP skin) it was 21.22 ± 3.91 h; in data set [1] (setting [5]) it was 21.22 ± 3.91 h. The “NTX Flux” value in data set [1] (MN GP skin, 3:1 PG:Hanks' buffer) stood at 11.80 ± 5.02 nmol/cm^2/h; in data set [1] (MN GP skin, 3:1 PG:Hanks' buffer, listed as Naltrexone base) it was 11.80±5.02 nmol/cm^2/h; in data set [1] (No MN GP skin) it was 9.94 ± 2.75 nmol/cm^2/h; in data set [1] (setting [5]), 9.94±2.75 nmol/cm^2/h. Besides, the Permeability in data set [2] is 0.03 ×10⁻⁶ cm/s. For the same compound, in data set [3] (3:1 PG:Hanks' buffer, 32 °C, aqueous with cosolvent or surfactant or cyclodextrin, thermodynamic from solid, Eq. 2, read-out: Solubility S used for theoretical dosing), the solubility at 24 h came out at 300 mg/mL (≈ 879 mM). Also, the “Solubility in 3:1 PG:Hanks Buffer” value in data set [3] (32° C., 24 h, listed as Naltrexone base) came out at 43.6 mM (≈ 14.9 mg/mL). The Maximum daily dose in data set [4] (10 cm^2 patch, passive diffusion without MN, at solubility limit) is on record as 0.4 mg. The Papp at 48 h in data set [4] (human, pH 7.4, microneedle-treated human skin, read-out: Permeability Kp (estimated) (converted)) was 0.0194 ×10⁻⁶ cm/s.
